Where two headings read alike, the source gives them in different places.
Experiments:
[1] = test system: mammalian GABAA receptor with α1 subunit XY segment replaced with UNC-49B XY sequence; assay: Neurosteroid positive modulation, subunits expressed in Xenopus oocytes; format: cell-based; settings: altered receptor compared to the wild-type receptor
Method: It has been shown that one variant of the XY segment conferred high PS sensitivity (the UNC-49C sequence) (Example 1), while another variant of the XY segment conferred low PS sensitivity (the UNC-49B sequence). Subunits of mammalian GABAA receptors also contain an XY segment. It was tested whether neurosteroid sensitivity of mammalian receptors similarly depended on their XY segments. The mammalian XY segment (within the α1 subunit) was replaced with the low-sensitivity UNC-49B XY sequence variant. […] Both positive and negative modulation of GABAA receptors are therapeutically beneficial.

[2] = target: T1, UNC-49B homomer (GABA receptor) (Caenorhabditis elegans, UniProt G5ECD3); assay: Pentobarbital enhancement of UNC-49B homomer (FIG. 14B, allosteric regulation of UNC-49); format: cell-based
T1 construct: homopentamer; two-electrode voltage clamp
T1 sequence (G5ECD3 23-506): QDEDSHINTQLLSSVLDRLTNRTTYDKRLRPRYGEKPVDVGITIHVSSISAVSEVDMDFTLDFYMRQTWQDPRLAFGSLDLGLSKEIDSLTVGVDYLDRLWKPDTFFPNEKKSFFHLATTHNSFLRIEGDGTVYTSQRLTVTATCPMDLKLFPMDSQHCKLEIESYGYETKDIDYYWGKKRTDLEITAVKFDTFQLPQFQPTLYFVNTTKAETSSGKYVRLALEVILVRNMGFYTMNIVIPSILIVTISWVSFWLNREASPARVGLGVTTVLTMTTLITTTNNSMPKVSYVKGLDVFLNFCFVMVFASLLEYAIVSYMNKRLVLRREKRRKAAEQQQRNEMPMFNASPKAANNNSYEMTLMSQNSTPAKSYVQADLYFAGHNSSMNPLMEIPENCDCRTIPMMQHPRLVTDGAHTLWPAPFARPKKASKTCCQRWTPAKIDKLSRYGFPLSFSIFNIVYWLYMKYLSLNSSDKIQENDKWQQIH
Method: (§1) Like their mammalian homologs, UNC-49 subunits contain a large extracellular amino terminal region, and four transmembrane domains labeled M1-M4.
(§2) Electrophysiology: Plasmids containing wild-type and mutagenized GABAA receptor subunits were linearized and transcribed in vitro using T3 RNA polymerase (mMessage mMachine T3 kit, Ambion, Austin Tex.). UNC-49B mRNA was injected into Xenopus laevis oocytes at 0.5 μg/μl either alone, or in a mixture with 0.5 μg/μl UNC-49C. […] The injection volume ranged between 27.6 nl to 50.6 nl. […] Cells were voltage clamped at −60 mV. All recordings were performed at room temperature.

[3] = target: T2, UNC-49B homomer (Caenorhabditis elegans, UniProt G5ECD3); format: cell-based, C. elegans
T2 sequence (G5ECD3 entry or part of it): as the sequence (G5ECD3 23-506) above
Method: as §2

[4] = test system: B-β3 chimera; assay: Pregnanolone response of B-β3 chimera; format: cell-based
Description: A) Structure of the B-β3 chimera. B) The B-β3 chimera is enhanced by pregnanolone.

[5] = target: T2, UNC-49B homomer; settings: UNC-49B homomers; Bamber et al., 2003; cited from earlier work
[6] = target: T3, UNC-49B/C heteromer (Caenorhabditis elegans, UniProt G5ECD3+G5EE10); settings: UNC-49B/C heteromers; Bamber et al., 2003; cited from earlier work
T3 sequence (G5EE10 entry or part of it): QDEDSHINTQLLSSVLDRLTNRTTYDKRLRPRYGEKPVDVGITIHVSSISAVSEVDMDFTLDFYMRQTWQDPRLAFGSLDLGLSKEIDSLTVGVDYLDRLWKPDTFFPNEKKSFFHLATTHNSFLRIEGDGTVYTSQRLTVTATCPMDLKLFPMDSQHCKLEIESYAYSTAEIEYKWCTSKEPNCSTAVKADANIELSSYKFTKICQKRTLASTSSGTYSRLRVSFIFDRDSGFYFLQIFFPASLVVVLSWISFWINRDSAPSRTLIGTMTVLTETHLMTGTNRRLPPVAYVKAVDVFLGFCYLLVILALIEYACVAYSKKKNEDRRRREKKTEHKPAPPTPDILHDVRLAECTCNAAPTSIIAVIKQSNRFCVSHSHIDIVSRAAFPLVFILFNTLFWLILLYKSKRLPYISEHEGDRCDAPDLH
T3 sequence (G5ECD3 entry or part of it): as the sequence (G5ECD3 23-506) above

[7] = test system: UNC-49B-PS7; format: cell-based, C. elegans; settings: UNC-49B-PS7 versus UNC-49B/C heteromer; at EC50 GABA
Method: as §2

[8] = target: Y chimera (Caenorhabditis elegans, UniProt G5ECD3, I265S/I267V/I270L/N259Q/N305R/T269V/V261F/V273I); format: cell-based, C. elegans; settings: Y chimera compared with wild-type UNC-49B and QF-R subunit; at EC50 GABA
Y chimera, sequence (G5ECD3 23-506, stated change not applied): as the sequence (G5ECD3 23-506) above
Method: as §2

[9] = target: T3, UNC-49B/C heteromer; format: cell-based; settings: UNC-49B/C heteromers
Method: as §2

[10] = target: QF-R (Caenorhabditis elegans, UniProt G5ECD3, N259Q/N305R/V261F); format: cell-based, C. elegans; settings: QF-R subunit compared with wild-type UNC-49B and Y chimera; at EC50 GABA
QF-R, sequence (G5ECD3 23-506, stated change not applied): as the sequence (G5ECD3 23-506) above
Method: as §2
The conserved residues were tested in the UNC-49C M1 domain in a similar way. […] To test the importance of these conserved residues, they were substituted into an UNC-49B subunit with the linker mutation N305R to create the ‘QF-R’ subunit (FIG. 3c).

[11] = target: T4, UNC-49B/C heteromer (GABA receptor) (Caenorhabditis elegans, UniProt G5ECD3+G5EE10); assay: Picrotoxin inhibition of GABA-evoked currents, UNC-49B/C heteromer (FIG. 14A; two-electrode voltage clamp, Xenopus oocytes); format: cell-based; settings: co-application of GABA and picrotoxin
T4 construct: two-electrode voltage clamp
T4 sequence (G5ECD3 23-506): as above
T4 sequence (G5EE10 entry or part of it): as the sequence (G5ECD3 23-506) above
Method: as §1, §2

[12] = target: T1, UNC-49B homomer (GABA receptor); assay: Picrotoxin inhibition of GABA-evoked currents, UNC-49B homomer (FIG. 14A; two-electrode voltage clamp, Xenopus oocytes); format: cell-based; settings: co-application of GABA and picrotoxin
Method: as §1, §2

For `C[C@]12CC[C@@H](O)C[C@@H]1CC[C@@H]1[C@@H]2CC[C@]2(C)[C@@H](C(=O)CO)CC[C@@H]12` [5α-3α-THDOC], the “positive modulation by neurosteroid” value [1] was “greatly-reduced positive modulation”.

With `CCCC(C)C1(CC)C(=O)NC(=O)NC1=O` (centres unmarked) [PB, pentobarbital] the EC50 [2] was 369 ± 23.1 µM.

For `CCCC(C)C1(CC)C(=O)NC(=O)NC1=O` (centres unmarked) [Pentobarbital], the pentobarbital enhancement [3] was “more strongly than UNC-49B/C heteromers”.

For `CC(=O)[C@H]1CC[C@H]2[C@@H]3CC[C@@H]4C[C@H](O)CC[C@]4(C)[C@H]3CC[C@]12C` [pregnanolone], the “direct activation by pregnanolone” value ([3]; UNC-49B homomer) was “fails to directly activate”, the pregnanolone modulation ([3]; UNC-49B homomer) was “inhibits, rather than enhances” and the “direct activation by pregnanolone” value [4] was “directly activated”. For the same compound, the pregnanolone modulation [4] was “enhanced”, the pregnanolone modulation [5] was “inhibited” and the pregnanolone modulation [6] was “inhibited”.

With picrotoxin [listing 1 of 2 here] the picrotoxin inhibition ([3]; UNC-49B homomers) was “strongly inhibits”, the picrotoxin sensitivity ([3]; wild-type UNC-49B compared with QF-R subunit and Y chimera (UNC-49B curve from Bamber et al. 2003)) was “identical” and the “fold difference in picrotoxin sensitivity” value [7] was 50 fold. For the same compound, the picrotoxin sensitivity [8] was “identical”, the picrotoxin inhibition [9] was “only weakly inhibits” and the picrotoxin sensitivity [10] was “identical”.

Compound picrotoxin [listing 2 of 2 here] has an IC50 [11] of 166 ± 42 µM and an IC50 [12] of 0.89 ± 0.15 µM.
